From PMC12173945, “Import mechanism of peroxisomal proteins with an N-terminal signal sequence” (Nature Cell Biology, 2025)
Substitutions are numbered along the chain they refer to.

Legend:
[1] = test system: yeast PEX7 bound to the ∆APH mutant of GST-tagged PEX39; assay: Competitive binding: peptide displacement of PEX7 from GST-tagged ∆APH PEX39 beads (Fig. 8b); design: species or system yeast (S. cerevisiae); conditions: for Stripping of PEX7 off PEX39 lacking the APH: peptide competition, Fig. 8b
Protocol: For the assay shown in Fig. 8b, the beads were first incubated with yeast PEX7 and the GST-tagged ∆APH variant of yeast PEX39 (each at 1 µM) for 30 min at 25 °C with agitation. Varying concentrations of the peptides, as indicated in the text, were then added and the reactions were incubated for a further 1 h under the same conditions. The beads were finally sedimented and the resulting supernatant fractions resolved by SDS–PAGE as above.
To calculate the fraction bound in the quantitative binding assay, digitized images of Coomassie-stained gels were first converted into 16-bit grayscale and their pixel intensities inverted. The mean pixel intensity was then measured within a rectangular selection encompassing each PEX7 protein band and the mean intensity of the background was subtracted from the measured values. The background-corrected intensities (corresponding to unbound PEX7 remaining in solution) were in turn subtracted from the intensity of the PEX7 band in a sample without PEX39 (that is, total PEX7). The resulting difference (corresponding to PEX7 that had bound to the beads) was finally divided by the total PEX7 intensity to yield the fraction bound. The data were fitted either to a standard binding isotherm or a competitive-binding isotherm, as appropriate, to estimate the observed binding constants.

[2] = test system: yeast PEX7; assay: Bead-binding assay: peptide-conjugated beads, recruitment of PEX7–GFP or PTS2–GFP; design: species or system yeast (S. cerevisiae); conditions: 1 h; for Recruitment of PTS2–GFP to peptide-conjugated beads: 1 µM PEX7 and 1 µM receptor, 1 µM cargo; for Recruitment of PEX7–GFP to peptide-conjugated beads: peptide on thiol-reactive beads, fluorescence microscopy
Source text: (§1) Cysteine-containing peptides were covalently conjugated to thiol-reactive SulfoLink coupling resin (Thermo Fisher, catalogue number 20401) according to the manufacturer’s instructions. The prepared beads were then mixed with Assay Buffer containing the fluorescently labelled protein as well as additional components indicated in the text, and the resulting bead suspensions were transferred to a 384-well glass-bottomed plate (Cellvis, P384-1.5H-N). GST-fusion proteins were instead mixed with glutathione agarose 4B (Prometheus, 20-543) in Assay Buffer containing the fluorescently labelled protein and additional components indicated in the text; the resulting bead suspensions were then transferred to a glass-bottomed plate as above. The plates were incubated at RT for the durations specified in the text and directly imaged on the spinning-disk confocal platform described earlier for peroxisomal import reactions in Xenopus egg extract. Note that imaging the beads directly in the binding reaction preserves the equilibrium and thereby allows even weak interactions to be detected. Fluorescence was collected through a Nikon ×10 0.45 NA Plan Apo air objective, and images were acquired using the Nikon NIS-Elements software and a 16-bit digitizer without binning. Imaging parameters were configured to maximize the SNR while avoiding saturation. Samples intended to be compared were imaged using identical acquisition settings.

[3] = test system: PEX7–receptor–cargo complex on PEX39-coated beads; assay: Bead-binding assay: recruitment of PEX7–receptor–cargo complex to PEX39-coated beads (Fig. 7d, 8a); design: species or system yeast (S. cerevisiae); conditions: 100 µM peptide, overnight, Fig. 8a
Source text: as §1

[4] = test system: YG hydrogel (wild-type YG-domain polypeptide of PEX13); assay: YG hydrogel permeation assay, wild-type hydrogel (Fig. 2, Fig. 3g, Extended Data Fig. 9d); conditions: for Displacement: PEX5-21 + PEX7
Protocol: A solution of the purified wild-type YG-domain polypeptide (or the variant lacking the KPWE motif) was concentrated to 2 mM in 50 mM HEPES·NaOH pH 7.8 at RT, 2 M urea and 2 mM TCEP. Aliquots of 2 µl were then spotted on the bottom of multiple wells of a 96-well glass-bottomed plate (Cellvis, P96-1.5H-N), which was then sealed with a gas-impermeable AlumaSeal II film (Hampton Research, HR8-069) to prevent desiccation and incubated at RT for 24 h. Before each assay, the resulting gels were equilibrated overnight at RT in a 100-fold excess of Assay Buffer (25 mM HEPES·NaOH pH 7.8 at RT, 150 mM NaCl and 1 mM TCEP). A 0.5 µM solution of fluorescently labelled protein in Assay Buffer was then added to the samples, with or without additional components at the concentrations indicated in the text, and incubated at RT. Gels were imaged at the times indicated in the text using a Nikon A1R point-scanning confocal system consisting of an inverted Nikon Eclipse Ti microscope and a Nikon ×20 0.75 NA Plan Apo air objective. The objective was centred on the gel edge and focus was maintained 5 µm above the glass surface using the Nikon Perfect Focus System. Fluorescence was excited through a 405/488/561/647 quad-band dichroic (Chroma), using a 488-nm solid-state laser (Coherent) and a galvano scanner. A 50-nm emission band was collected on a gallium arsenide phosphide detector, using an ET525/50m (525 ± 25 nm) single-band bandpass filter (Chroma) and a pinhole dilated to 0.9 Airy units. Images were acquired using the Nikon NIS-Elements software with a pixel size of 1 µm and a 12-bit digitizer. Imaging parameters were configured to maximize the SNR while avoiding saturation. All samples intended to be compared were imaged using identical acquisition settings.
For the YG hydrogel permeation assay, images were first oriented such that each gel edge faced the same direction. Fluorescence profiles across the buffer–gel interface were then generated by centering a 60 × 300 µm rectangular area on the gel edge and then measuring the mean fluorescence at each position within this selection. To express the resulting values in terms of fold enrichment, the fluorescence at each position along the selection was normalized to the average fluorescence in the buffer and plotted in terms of the distance from the gel edge.
To calculate permeation rates through the YG hydrogel, a 60 × 300 µm rectangular area was first centred on the gel edge. The resulting region was then thresholded to demarcate the permeation zone (that is, the distance traversed by the fluorescent species) from the buffer and non-permeated part of the gel. The width of the area above the threshold was then measured and plotted as a function of time. A linear fit to the data yielded the permeation rate.

[5] = target: T1, yeast PEX7, P39108; assay: bead sedimentation (GST pull-down depletion) assay, SDS-PAGE with Coomassie quantification of PEX7 left in the supernatant; conditions: chain shown with the change; 1 µM yeast PEX7; varying GST-PEX39 concentrations; 1 h; 25 °C; parent: 0.60 ± 0.056
T1 chain: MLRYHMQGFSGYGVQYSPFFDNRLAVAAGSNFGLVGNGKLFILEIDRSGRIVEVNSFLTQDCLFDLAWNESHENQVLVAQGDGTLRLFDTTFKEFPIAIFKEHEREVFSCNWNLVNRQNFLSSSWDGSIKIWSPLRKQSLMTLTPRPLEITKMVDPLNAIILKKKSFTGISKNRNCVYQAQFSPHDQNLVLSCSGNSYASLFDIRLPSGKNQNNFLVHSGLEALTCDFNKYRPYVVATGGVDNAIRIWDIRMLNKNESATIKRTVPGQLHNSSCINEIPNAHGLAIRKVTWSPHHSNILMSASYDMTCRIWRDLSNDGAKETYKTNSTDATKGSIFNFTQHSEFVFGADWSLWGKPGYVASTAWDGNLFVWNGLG

[6] = target: T2, yeast PEX7 fused at the C terminus to GFP (PEX7–GFP) (yeast (S. cerevisiae), UniProt P39108 1-375); assay: YG hydrogel release assay (confocal microscopy); hydrogels equilibrated 3 h at RT with 0.5 µM PEX7–GFP or PEX5–GFP, with or without PTS2 peptide and receptor; PEX39 then spiked in and gels imaged every 2 min for 1 h; conditions: both partners purified
T2 construct: PEX7, yeast (S. cerevisiae); not shown: GST, N-terminal, cleaved; GFP, C-terminal, kept
T2 sequence (looked up): T1 chain

[7] = target: T3, GST-tagged yeast PEX7 (GST–PEX7) (yeast (S. cerevisiae), UniProt P39108 1-375); assay: bead-binding assay (fluorescence on beads by spinning-disk confocal microscopy); GST-tagged protein on glutathione beads; GFP-fused partner in solution (1 µM each in Extended Data Fig. 9a); 1 h, RT; conditions: both partners purified
T3 construct: PEX7, yeast (S. cerevisiae); GST followed by a TEV protease-cleavage site; source: purified recombinant; PEX7 was produced in P. pastoris as a fusion to an N-terminal GST tag; not shown: GST, N-terminal, kept
T3 sequence (looked up): T1 chain

“CSSTAVPRPKPWETSASLEE [KPWE peptide, residues 2–20 of S. cerevisiae PEX13 with an additional N-terminal cysteine]” was tested, and the “Kobs (observed binding constant)” value ([1]; PEX7 and GST-PEX39 ∆APH each 1 µM, peptide added 1 h, 25 °C, competitive-binding isotherm, mean ± s.e.m., three independent experiments, ND = binding not detectable) was 41 ± 1.2 µM, the Fraction bound ([1]; [Peptide] 10 µM, replicate 1) was 0.810 and the Fraction bound ([1]; [Peptide] 10 µM, replicate 2) was 0.769. It also gave a Fraction bound ([1]; [Peptide] 10 µM, replicate 3) of 0.841, a Fraction bound ([1]; [Peptide] 30 µM, replicate 1) of 0.666 and a Fraction bound ([1]; [Peptide] 30 µM, replicate 2) of 0.688. For the same molecule, the Fraction bound ([1]; [Peptide] 30 µM, replicate 3) was 0.732, the Fraction bound ([1]; [Peptide] 100 µM, replicate 1) was 0.458 and the Fraction bound ([1]; [Peptide] 100 µM, replicate 2) was 0.521. The Fraction bound ([1]; [Peptide] 100 µM, replicate 3) was 0.552, the Fraction bound ([1]; [Peptide] 300 µM, replicate 1) was 0.302 and the Fraction bound ([1]; [Peptide] 300 µM, replicate 2) was 0.372. For the same molecule, the Fraction bound ([1]; [Peptide] 300 µM, replicate 3) was 0.402, the Fraction bound ([1]; [Peptide] 1000 µM, replicate 1) was 0.141 and the Fraction bound ([1]; [Peptide] 1000 µM, replicate 2) was 0.198. For the same molecule, the Fraction bound ([1]; [Peptide] 1000 µM, replicate 3) was 0.200, the “Stripping of PEX7 off PEX39 lacking the APH” value [1] was “could strip off PEX7 from PEX39 lacking the APH” and the “Recruitment of PTS2–GFP to peptide-conjugated beads” value [2] was “could recruit PTS2–GFP only when PEX7 and the receptor were both present”. For the same molecule, the “Recruitment of PEX7–GFP to peptide-conjugated beads” value [2] was “could recruit yeast PEX7 fused at the C terminus to GFP” and the “Effect of peptide on recruitment of the PEX7–receptor–cargo complex to PEX39-coated beads” value [3] was “no longer efficiently recruited to PEX39-coated beads”.

For “PTS1: mEGFP fused at the C terminus to an enhanced PTS1 import signal (GYKGLKSKL)”, the Displacement ([4]; 0 min, replicate 1) was 0.000 µm, the Displacement ([4]; 0 min, replicate 2) was 0.000 µm and the Displacement ([4]; 0 min, replicate 3) was 0.000 µm. For the same molecule, the Displacement ([4]; 30 min, replicate 1) was 44.992 µm, the Displacement ([4]; 30 min, replicate 2) was 39.993 µm and the Displacement ([4]; 30 min, replicate 3) was 31.994 µm. For the same molecule, the Displacement ([4]; 60 min, replicate 1) was 64.988 µm, the Displacement ([4]; 60 min, replicate 2) was 59.989 µm and the Displacement ([4]; 60 min, replicate 3) was 45.992 µm.

With “CSSTAVPEPRWKPTSASLEE [scrambled peptide, KPWE peptide with amino acids 8 and 10–13 rearranged]” the Fraction bound ([1]; [Peptide] 10 µM, replicate 1) was 0.936, the Fraction bound ([1]; [Peptide] 10 µM, replicate 2) was 0.865 and the Fraction bound ([1]; [Peptide] 10 µM, replicate 3) was 0.914. It also gave a Fraction bound ([1]; [Peptide] 30 µM, replicate 1) of 0.947, a Fraction bound ([1]; [Peptide] 30 µM, replicate 2) of 0.840 and a Fraction bound ([1]; [Peptide] 30 µM, replicate 3) of 0.887. The Fraction bound ([1]; [Peptide] 100 µM, replicate 1) was 0.965, the Fraction bound ([1]; [Peptide] 100 µM, replicate 2) was 0.864 and the Fraction bound ([1]; [Peptide] 100 µM, replicate 3) was 0.888. It also gave a Fraction bound ([1]; [Peptide] 300 µM, replicate 1) of 0.952, a Fraction bound ([1]; [Peptide] 300 µM, replicate 2) of 0.871 and a Fraction bound ([1]; [Peptide] 300 µM, replicate 3) of 0.887. For the same molecule, the Fraction bound ([1]; [Peptide] 1000 µM, replicate 1) was 0.902, the Fraction bound ([1]; [Peptide] 1000 µM, replicate 2) was 0.861 and the Fraction bound ([1]; [Peptide] 1000 µM, replicate 3) was 0.848. The “Stripping of PEX7 off PEX39 lacking the APH” value [1] was “could not”, the “Recruitment of PTS2–GFP to peptide-conjugated beads” value [2] was “No binding was seen” and the “Recruitment of PEX7–GFP to peptide-conjugated beads” value [2] was “could not”. The “Effect of peptide on recruitment of the PEX7–receptor–cargo complex to PEX39-coated beads” value [3] was “had no effect”.

B1: GST-tagged wild-type yeast PEX39 (GST–PEX39), P47087 ΔRPWE (RPWE motif converted to alanine) (protein)
chain: MAAGGELSYEELLDHILNNKPIPNIVEVPNVTLDEGLASTPSLRPRPAAAAGQLQHQSHQGSLDKPNISLDIDQESLEGMTSLTRLSECYDIQSKLQINDSDNDNDDNNNDNNKGDGNDDDNNTVTANPTAR
In the case of B1, the other: Kobs (observed binding constant) [5] is reported as 190 µM.

B2: wild-type yeast PEX39 (natural protein, UniProt P47087 1-132, looked up)
chain: B1 chain with A48R, A49P, A50W, A51E
notes: PEX39, yeast; also called WT; not shown: GST, N-terminal, cleaved
B2: binds [6].

B3: yeast PEX39 fused at the C terminus to GFP (PEX39–GFP) (natural protein, UniProt P47087 1-132, looked up)
chain: B1 chain with A48R, A49P, A50W, A51E
notes: PEX39, yeast; not shown: GST, N-terminal, cleaved; GFP, C-terminal, kept
B3: binds [7].

B4: PEX39–GFP: PEX39 fused at the C terminus to a GSG linker and mEGFP (protein)
chain: B1 chain with A48R, A49P, A50W, A51E
modifications: left off: GST, N-terminal, cleaved | GFP, C-terminal, kept
notes: PEX39 fused at the C terminus to a GSG linker and mEGFP
For B4, the “Entry into YG hydrogel” value ([4]; wild-type hydrogel) was “did not by itself enter the YG hydrogel”.
